What was measured:
human Nox4 = biological target: T1, human Nox4 (Homo sapiens, UniProt Q9NPH5); assay: ROS production by membranes expressing human Nox4, cell-free Amplex Red assay; type: biochemical; settings: cell-free membranes, Amplex Red; Cheng-Prusoff; average of at least three experiments in triplicate; read-out: Ki hNox4
T1 construct: expressed in transfected cells; host or cells: T-REx-293 (hNOX4 T-REx-293), tetracycline-induced; membrane fraction
T1 sequence (Q9NPH5 1-578): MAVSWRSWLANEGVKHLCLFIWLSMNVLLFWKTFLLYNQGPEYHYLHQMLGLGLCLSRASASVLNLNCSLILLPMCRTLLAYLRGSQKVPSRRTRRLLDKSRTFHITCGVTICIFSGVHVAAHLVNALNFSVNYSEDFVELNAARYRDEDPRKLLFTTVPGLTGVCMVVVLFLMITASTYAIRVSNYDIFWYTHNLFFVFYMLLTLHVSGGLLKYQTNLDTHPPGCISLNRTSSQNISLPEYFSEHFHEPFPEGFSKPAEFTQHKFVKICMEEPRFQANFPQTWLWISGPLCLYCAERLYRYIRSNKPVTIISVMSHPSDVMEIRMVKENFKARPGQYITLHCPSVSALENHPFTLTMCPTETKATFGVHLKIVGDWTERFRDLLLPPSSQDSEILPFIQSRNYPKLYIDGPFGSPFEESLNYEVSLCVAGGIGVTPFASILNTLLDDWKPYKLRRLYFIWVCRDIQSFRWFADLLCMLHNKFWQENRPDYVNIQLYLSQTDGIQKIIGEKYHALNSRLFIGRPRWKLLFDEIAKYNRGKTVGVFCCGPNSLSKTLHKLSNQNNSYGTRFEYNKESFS
T1 sequence (P13498 2-195 partner limits assumed): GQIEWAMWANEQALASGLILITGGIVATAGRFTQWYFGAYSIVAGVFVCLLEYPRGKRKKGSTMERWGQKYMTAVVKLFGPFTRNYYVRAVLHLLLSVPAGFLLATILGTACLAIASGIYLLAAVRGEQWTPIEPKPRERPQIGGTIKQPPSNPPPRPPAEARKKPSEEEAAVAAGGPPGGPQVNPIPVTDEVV
Excerpt: (§1) The Nox4 activity of Nox4 inhibitors according to the invention may be tested for their activity in the inhibition or reduction of formation of reactive oxygen species (ROS) from oxygen in cell free assays. In order to fully characterise Nox4 inhibitors, Nox subunit-specific cell-free, membrane-based systems have been developed and specific recombinant proteins have been added to membranes heterologously over-expressing their specific iso form. Nox enzymes produce superoxide (O2.−) as primary product, however due to the high instability and reactivity of this molecule which dismutates naturally into hydrogen peroxide (H2O2), therefore, read-out techniques involving probes that do measure H2O2 were used (e.g. using Amplex Red as a probe in order to facilitate consistent and accurate measurements). The activity of the compounds is tested in the following cell free assay using the techniques described here below:
Transfected T-REx™-CHO cells (R718-07) purchased from Invitrogen and T-REx™-293 cell line expressing hNOX4 (hNOX4 T-REx™-293) (Serrander et al., 2007, Biochem. J., 406, 105-114) were cultured in […]. Both media were supplemented with 10% FBS, 2 mM glutamine, penicillin (100 U/ml) and streptomycin (100 μg/ml). Selection pressure was maintained by continuous inclusion of blasticidin (5 μg/ml), and/or G418 (0.25 mg/ml), and/or Hygromycin (0.25 mg/ml) and/or zeocin (0.025 mg/ml).
(§2) Human Nox1, Nox2, Nox4, and Nox5 expression were induced with Tetracycline (1 μg/ml) during 24 h prior to the membrane preparation Membranes from transfected cells overexpressing Nox1, Nox2, Nox4 or Nox5 were prepared as previously described in Palicz et al., 2001, J. Biol. Chem., 76, 3090-3097. After resuspension in sonication buffer (11% sucrose, 120 mM NaCl, 1 mM EGTA in PBS, pH 7.4 for Nox4- or NOX5-expressing cells) or in relax buffer (10 mM Pipes, 3 mM NaCl, 3.5 mM MgCl2, 0.1M KCl, pH 7.4), cells were broken by sonication and centrifuged (200 g, 10 min). The supernatant was layered onto a 17/40% (w/v) discontinuous sucrose gradient and centrifuged (150,000×g for 60 min). Membrane fractions were collected from the 17/40% interface and were stored at −80° C. Protein concentration was determined with the Bradford reagent.
(§3) Reactive Oxygen Species (ROS) production by membranes expressing either human Nox1, or human Nox2 or human Nox4 or human Nox5 or by xanthine/xanthine oxidase were measured using the Amplex Red (AR) method following a slightly modified version of the manufacturer's instruction manual (Invitrogen). Briefly, membranes or xanthine were incubated in PBS with Amplex Red, Horse Radish Peroxidase (HRP) and appropriated co-factors. ROS production was induced by addition of NADPH to NOX-expressing membrane or by addition of xanthine to xanthine oxidase. Non-specific signal was measured in the absence of membranes or in the absence of xanthine.
Antagonist activity of compounds was measured in the presence of increasing concentrations ranging from 1 nM to 100 μM. After an incubation of 20 min in a plate shaker and incubator (Titramax 1000, VWR) at 37° C. with weak agitation (300 rpm), ROS levels were measured for 10 min in a BMG Fluostar microplate reader with excitation and emission wavelengths of 544 nm and 590 nm respectively.
Data were analysed using Prism (GraphPad Software Inc., San Diego, Calif.). Ki values were calculated using the Cheng-Prusoff equation and represent the average of at least three individual experiments performed in triplicate (Table 1). Nox4 inhibition was compared to that measured for Simvastatin (Enzo Life Sciences, CAS Number 79902-63-9) using the method described in Example 1. Reactive Oxygen Species (ROS) production by membranes expressing human Nox4 was measured using the Amplex Red (AR).

human Nox2 = biological target: T2, human Nox2 (Homo sapiens, UniProt P04839); assay: ROS production by membranes expressing human Nox2, cell-free Amplex Red assay; type: biochemical; settings: cell-free membranes, Amplex Red; Cheng-Prusoff; average of at least three experiments in triplicate; read-out: Ki hNox2
T2 construct: host or cells: T-REx-CHO (hNOX2 T-REx-CHO), tetracycline-induced; membrane fraction
T2 sequence (P04839 2-570 limits assumed): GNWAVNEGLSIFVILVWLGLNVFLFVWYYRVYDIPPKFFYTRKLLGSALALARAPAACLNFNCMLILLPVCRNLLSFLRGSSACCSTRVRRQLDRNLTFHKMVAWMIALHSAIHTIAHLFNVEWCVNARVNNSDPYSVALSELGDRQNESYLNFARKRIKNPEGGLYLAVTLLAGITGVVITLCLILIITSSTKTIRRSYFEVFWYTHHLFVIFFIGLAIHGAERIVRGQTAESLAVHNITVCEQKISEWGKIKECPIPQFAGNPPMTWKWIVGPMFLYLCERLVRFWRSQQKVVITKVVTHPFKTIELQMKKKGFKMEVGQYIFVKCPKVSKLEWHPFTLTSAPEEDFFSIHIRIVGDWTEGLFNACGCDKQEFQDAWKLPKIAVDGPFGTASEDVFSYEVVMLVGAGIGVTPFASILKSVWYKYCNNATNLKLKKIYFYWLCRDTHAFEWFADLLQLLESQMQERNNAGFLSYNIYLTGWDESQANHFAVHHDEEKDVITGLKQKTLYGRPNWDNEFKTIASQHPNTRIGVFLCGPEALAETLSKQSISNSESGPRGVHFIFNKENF
T2 sequence (P13498 2-195 partner limits assumed): T1 sequence (P13498 2-195 partner limits assumed)
Excerpt: as §1
Human Nox1 (NM_007052.4), human NOX2 (NM_000397), and human NOX5 (NM_0245052244) cDNAs were cloned into the pcDNA5/TO (Invitrogen). Human p22 (NM_000101.2) was cloned into pcDNA3.1/Zeo (+) (Invitrogen), and human NOXA1 (AY255769.1) and human NOXO1 (AB097667) were cloned into the bi-cistronic pVITRO1-neo-mcs plasmid (Invivogen).
Cells were transfected by using the FuGENE 6 method. Cells stably expressing functional human Nox1 (hNOX1 T-REx™-CHO) were obtained by co-transfecting T-REx™-CHO cells with human Nox1, human p22, human NOXA1 and human NOXO1. Cells stably expressing functional human Nox2 (hNOX2 T-REx™-CHO) were obtained by co-transfecting T-REx™-CHO cells with human nox2, human p22 and human cofactors. Cells stably expressing functional human Nox5 (hNOX5 T-REx™-CHO) were obtained by transfecting T-REx™-CHO cells with human Nox5. Co-transfected cells were selected with the appropriate antibiotics for 10 days. For the selection, hygromycin and G418 were used at 2 mg/ml and zeocin at 0.1 mg/ml. For the establishment of each stably transfected cell line, a pool of antibiotic-resistant cells was generated. Cells were cloned by limiting dilution. Several clones were established and investigated for ROS production upon tetracycline-induced hNox expression using a cellular AR assay. The expression of NOXes was done with tetracycline (1 μg/ml) during 24 h prior to the assay.
as §2, §3
Antagonist activity of compounds was measured in the presence of increasing concentrations ranging from 1 nM to 100 μM. […]

Compound: COc1ccccc1-n1[nH]c2cc(=O)n(Cc3cccnc3)c(-c3cc(Cl)ccc3F)c2c1=O [(14), 4-(5-chloro-2-fluorophenyl)-2-(2-methoxyphenyl)-5-(pyridin-3-ylmethyl)-1H-pyrazolo[4,3-c]pyridine-3,6(2H,5H)-dione]
- Ki (human Nox4): 81 nM
- Ki (human Nox2): 695 nM

Compound: Cc1c2c(=O)n(-c3ccccc3Cl)[nH]c2cc(=O)n1Cc1ccn(C)n1 [(30), 2-(2-chlorophenyl)-4-methyl-5-[(1-methyl-1H-pyrazol-3-yl)methyl]-1H-pyrazolo[4,3-c]pyridine-3,6(2H,5H)-dione]
- Ki (human Nox4): 111 nM
- Ki (human Nox2): 1060 nM

Compound: COc1ccc(-c2c3c(=O)n(-c4ccccc4Cl)[nH]c3cc(=O)n2Cc2ccn(C)n2)c(F)c1 [(4), 2-(2-chlorophenyl)-4-(2-fluoro-4-methoxyphenyl)-5-[(1-methyl-1H-pyrazol-3-yl)methyl]-1H-pyrazolo[4,3-c]pyridine-3,6(2H,5H)-dione]
- Ki (human Nox4): 61 nM
- Ki (human Nox2): 813 nM

Compound: COc1cc(Cn2c(C)c3c(=O)n(-c4ccccc4Cl)[nH]c3cc2=O)ccn1 [(6), 2-(2-chlorophenyl)-5-[(2-methoxypyridin-4-yl)methyl]-4-methyl-1H-pyrazolo[4,3-c]pyridine-3,6(2H,5H)-dione]
- Ki (human Nox4): 69 nM
- Ki (human Nox2): 715 nM

Compound: COc1cc(Cn2c(-c3ccc(Cl)cc3F)c3c(=O)n(-c4ccccc4Cl)[nH]c3cc2=O)ccn1 [(26), 4-(4-chloro-2-fluorophenyl)-2-(2-chlorophenyl)-5-[(2-methoxypyridin-4-yl)methyl]-1H-pyrazolo[4,3-c]pyridine-3,6(2H,5H)-dione]
- Ki (human Nox4): 105 nM
- Ki (human Nox2): 565 nM

Compound: COc1ccc(-c2c3c(=O)n(-c4ccccc4OC)[nH]c3cc(=O)n2Cc2ccn(C)n2)c(F)c1 [(22), 4-(2-fluoro-4-methoxyphenyl)-2-(2-methoxyphenyl)-5-[(1-methyl-1H-pyrazol-3-yl)methyl]-1H-pyrazolo[4,3-c]pyridine-3,6(2H,5H)-dione]
- Ki (human Nox4): 98 nM
- Ki (human Nox2): 925 nM

Compound: O=c1c2c(-c3ccc(Cl)cc3)n(Cc3ccncc3)c(=O)cc2[nH]n1-c1ccccc1Cl [(18), 2-(2-chlorophenyl)-4-(4-chlorophenyl)-5-(pyridin-4-ylmethyl)-1H-pyrazolo[4,3-c]pyridine-3,6(2H,5H)-dione]
- Ki (human Nox4): 89 nM
- Ki (human Nox2): 810 nM

Compound: COc1ccc(Cn2c(C)c3c(=O)n(-c4ccccc4Cl)[nH]c3cc2=O)cn1 [(10), 2-(2-chlorophenyl)-5-[(6-methoxypyridin-3-yl)methyl]-4-methyl-1H-pyrazolo[4,3-c]pyridine-3,6(2H,5H)-dione]
- Ki (human Nox4): 74 nM
- Ki (human Nox2): 700 nM

Compound: COc1ccc(F)c(-c2c3c(=O)n(-c4ccccc4OC)[nH]c3cc(=O)n2Cc2cccnc2)c1 [(5), 4-(2-fluoro-5-methoxyphenyl)-2-(2-methoxyphenyl)-5-(pyridin-3-ylmethyl)-1H-pyrazolo[4,3-c]pyridine-3,6(2H,5H)-dione]
- Ki (human Nox4): 63 nM
- Ki (human Nox2): 730 nM

Compound: O=c1c2c(-c3ccc(Cl)cc3)n(Cc3nccs3)c(=O)cc2[nH]n1-c1ccccc1Cl [(36), 2-(2-chlorophenyl)-4-(4-chlorophenyl)-5-(1,3-thiazol-2-ylmethyl)-1H-pyrazolo[4,3-c]pyridine-3,6(2H,5H)-dione]
- Ki (human Nox4): 125 nM
- Ki (human Nox2): 1160 nM

Compound: COc1ccccc1-n1[nH]c2cc(=O)n(Cc3cnccn3)c(-c3ccc(Cl)cc3)c2c1=O [(3), 4-(4-chlorophenyl)-2-(2-methoxyphenyl)-5-(pyrazin-2-ylmethyl)-1H-pyrazolo[4,3-c]pyridine-3,6(2H,5H)-dione]
- Ki (human Nox4): 57 nM
- Ki (human Nox2): 735 nM

Compound: COc1ccc(-c2c3c(=O)n(-c4ccccc4Cl)[nH]c3cc(=O)n2Cc2cccnc2)c(F)c1 [(21), 2-(2-chlorophenyl)-4-(2-fluoro-4-methoxyphenyl)-5-(pyridin-3-ylmethyl)-1H-pyrazolo[4,3-c]pyridine-3,6(2H,5H)-dione]
- Ki (human Nox4): 96 nM
- Ki (human Nox2): 555 nM

Compound: O=c1c2c(-c3ccc(Cl)cc3)n(Cc3cnccn3)c(=O)cc2[nH]n1-c1ccccc1Cl [(16), 2-(2-chlorophenyl)-4-(4-chlorophenyl)-5-(pyrazin-2-ylmethyl)-1H-pyrazolo[4,3-c]pyridine-3,6(2H,5H)-dione]
- Ki (human Nox4): 85 nM
- Ki (human Nox2): 720 nM
